Article PMC3124649 (Journal of medicinal chemistry, 2011)

Assays:
[1] = system: HBV replication (extracellular virion HBV DNA); experiment: HBV virion; assay type: cell-based, hepatitis B virus; details: for activity against HBV (in words): 2.2.15 cells
Plasma protein binding = assay type: in vitro ADME; details: ADME/Tox studies
CYP isozymes = experiment: CYP inhibition panel; assay type: in vitro ADME
Dog PK study = assay type: in vivo
[2] = Stability in human blood and plasma; assay type: in vitro ADME; details: one hour incubation
Rat PK study = assay type: in vivo
[3] = cited from earlier work
[4] = administered after food; cited from earlier work
anaerobic bacteria [5] = experiment: Activity against anaerobes
HCV = details: cited from earlier work
[6] = cited from earlier work; remark: listed apart in the source
anaerobic bacteria [7] = details: cited from earlier work

With `COC(=O)c1cnc(NC(=O)c2ccccc2O)s1` [Compound 27] as the compound, how does the “activity against HBV (in words)” value [1] read?
The value was “inactive”.

Which “activity against HBV (in words)” value [1] does the source give for `CC(=O)Oc1ccccc1C(=O)Nc1ccc(I)cc1` [Compound 33] here?
The value was “useful activity”.

Which “activity against HBV (in words)” value [1] does the source give for `O=C(Nc1ncc(C(F)(F)F)s1)c1ccccc1O` [Compound 28] here?
Its value is “slight activity”.

With `N#Cc1cnc(NC(=O)c2ccccc2O)s1` [Compound 26] as the compound, how does the “activity against HBV (in words)” value [1] read?
The value was “slight activity”.

For `Cc1ccc(O)c(C(=O)Nc2ncc(Cl)s2)c1` [Compound 12, 2-Hydroxy-5-methylbenzoyl-N-(5-chlorothiazol-2-yl) amide], which protein bound (Plasma protein binding) is on record?
Its protein bound is greater than 99%.

And the “inhibition of CYP isozymes” value (CYP isozymes; 14 different CYP isozymes)?
Its value is “not an inhibitor”.

And the oral absorption (Dog PK study)?
Its oral absorption is “not orally absorbed”.

What about the “stability in human blood and plasma” value [2] of the same compound?
The value was “complete stability”.

What about the oral absorption (Rat PK study) of the same compound?
The oral absorption was “not orally absorbed”.

With `O=C(Nc1ccc([N+](=O)[O-])cc1Cl)c1cc(Cl)ccc1O` [Niclosamide, reference compound] as the compound, how does the aqueous solubility [3] read?
Its aqueous solubility is “poor”.

What about the “activity against HBV (in words)” value [1] of the same compound?
The value was “inactive”.

And the EC50 ([1]; Hepatitis B virus, read-out: EC50 (VIR))?
Its EC50 is greater than 10 µM.

With `CC(=O)Nc1cnc(NC(=O)c2ccccc2O)s1` [Compound 23, 2-Hydroxybenzoyl-N-(5-acetamidothiazol-2-yl)amide] as the compound, how does the “activity against HBV (in words)” value [1] read?
Its value is “inactive”.

Which “activity against HBV (in words)” value [1] does the source give for `CC(=O)Oc1ccccc1C(=O)Nc1ccc(Cl)cc1` [Compound 30] here?
Its value is “low potency”.

For `Cc1cc([N+](=O)[O-])c(Cl)cc1NC(=O)c1ccccc1O` [Compound 37], which “activity against HBV (in words)” value [1] is on record?
Its value is “good activity”.

Which oral bioavailability [4] does the source give for `CC(=O)Oc1ccccc1C(=O)Nc1ncc([N+](=O)[O-])s1` [Compound 1, nitazoxanide] here?
The oral bioavailability was “about 50%”.

Which results are given for `O=C(Nc1ncc(Cl)s1)c1ccccc1O` [Compound 3, 2-Hydroxybenzoyl-N-(5-chlorothiazol-2-yl) amide]?
activity against anaerobes (anaerobic bacteria [5]): inactive; drug-drug interactions (CYP isozymes): nor does it show unfavourable drug-drug interactions; effects against a panel of CYPs (CYP isozymes): no adverse effects

With `O=C(Nc1cc(C(F)(F)F)ccc1Cl)c1ccccc1O` [Compound 35] as the compound, how does the “activity against HBV (in words)” value [1] read?
Its value is “moderate activity”.

For `CS(=O)(=O)c1csc(NC(=O)c2ccccc2O)n1` [Compound 24], which “activity against HBV (in words)” value [1] is on record?
The value was “inactive”.

What about the “inhibition of HCV” value (HCV) of the same compound?
Its value is “potent inhibitor”.

Which “activity against HBV (in words)” value [1] does the source give for `CS(=O)(=O)c1cnc(NC(=O)c2ccccc2O)s1` [Compound 25] here?
Its value is “inactive”.

With `Cc1cccc(C(=O)Nc2ncc(Cl)s2)c1O` [Compound 11] as the compound, how does the “activity against HBV (in words)” value [1] read?
Its value is “essentially inactive”.

For `CC(=O)Oc1ccccc1C(=O)Nc1ccc(Br)cc1` [Compound 32], which “activity against HBV (in words)” value [1] is on record?
Its value is “useful activity”.

For `O=C(Nc1ccc([N+](=O)[O-])cc1)c1ccccc1O` [Compound 34], which “activity against HBV (in words)” value [1] is on record?
Its value is “inactive”.

For `O=C(Nc1nc(-c2ccccc2)cs1)c1ccccc1O` [Compound 19], which “activity against HBV (in words)” value [1] is on record?
The value was “modest level of activity”.

For `O=C(Nc1ncc([N+](=O)[O-])s1)c1ccccc1O[C@@H]1O[C@H](C(=O)O)[C@@H](O)[C@H](O)[C@H]1O` [Compound 58], which antiviral activity [6] is on record?
Its antiviral activity is “essentially devoid of antiviral activity”.

And the “activity against anaerobic bacteria” value (anaerobic bacteria [7])?
The value was “moderate activity”.

With `CC(=O)Oc1ccccc1C(=O)Nc1cc(C(F)(F)F)cc(C(F)(F)F)c1` [Compound 36] as the compound, how does the “activity against HBV (in words)” value [1] read?
The value was “moderate activity”.

With `CSc1cnc(NC(=O)c2ccccc2OC(C)=O)s1` [Compound 44] as the compound, how does the “activity against HBV (in words)” value [1] read?
Its value is “inactive”.

Which “activity against HBV (in words)” value [1] does the source give for `CC(C)c1cnc(NC(=O)c2ccccc2O)s1` [Compound 17] here?
The value was “inactive”.

Which “activity against HBV (in words)” value [1] does the source give for `O=C(Nc1ccc(Cl)cc1)c1ccccc1O` [Compound 31] here?
The value was “lack of activity”.

With `O=C(Nc1ncc(-c2ccc(Cl)cc2)s1)c1ccccc1O` [Compound 18] as the compound, how does the “activity against HBV (in words)” value [1] read?
The value was “inactive”.

For `O=C(Nc1nccs1)c1ccccc1O` [Compound 16], which “activity against HBV (in words)” value [1] is on record?
Its value is “complete loss of HBV activity”.
